# Assay results: publication PMC12284876 (RSC Advances, 2025)
# Molecular target: α-glucosidase from Saccharomyces cerevisiae (Saccharomyces cerevisiae, UniProt P53341)
# Test: α-Glucosidase inhibitory assay
# Type: biochemical
# Conditions: mean ± standard error, n = 3; for Inhibition (I, %) 10 μM: compound at 10 μM; for Inhibition (I, %) 10 μM / Inhibition (I, %) 25 μM: series 250–10 μM; for Inhibition (I, %) 25 μM: compound at 25 μM; for Inhibition (I, %) 50 μM: compound at 50 μM; for Inhibition (I, %) 100 μM: compound at 100 μM; for Inhibition (I, %) 250 μM: compound at 250 μM
# α-glucosidase from Saccharomyces cerevisiae, sequence (P53341 whole entry): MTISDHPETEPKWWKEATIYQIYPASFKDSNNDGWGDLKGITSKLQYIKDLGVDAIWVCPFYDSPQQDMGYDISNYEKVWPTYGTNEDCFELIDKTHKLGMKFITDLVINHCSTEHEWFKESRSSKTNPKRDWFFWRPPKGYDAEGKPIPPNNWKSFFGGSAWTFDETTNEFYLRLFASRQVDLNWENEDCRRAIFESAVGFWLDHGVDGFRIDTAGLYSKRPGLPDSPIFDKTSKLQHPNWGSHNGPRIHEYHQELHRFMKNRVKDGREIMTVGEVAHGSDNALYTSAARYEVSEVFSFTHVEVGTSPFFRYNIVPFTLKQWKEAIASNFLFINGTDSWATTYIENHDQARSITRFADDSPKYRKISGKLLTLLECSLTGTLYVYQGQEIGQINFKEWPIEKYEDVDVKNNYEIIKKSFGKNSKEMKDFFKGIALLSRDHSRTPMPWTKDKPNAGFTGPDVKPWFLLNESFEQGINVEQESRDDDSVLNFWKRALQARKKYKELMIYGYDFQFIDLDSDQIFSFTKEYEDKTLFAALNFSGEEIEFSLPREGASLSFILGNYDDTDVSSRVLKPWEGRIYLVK
"Inhibition (I, %) 10 μM [%]","Inhibition (I, %) 25 μM [%]","Inhibition (I, %) 50 μM [%]","Inhibition (I, %) 100 μM [%]","Inhibition (I, %) 250 μM",SMILES
5.45 ± 0.68,9.3 ± 1.2,21.0 ± 1.6,26.8 ± 1.0,63.8 ± 1.0%,C[C@H]1O[C@H](O[C@H]2[C@H](O)[C@@H](O)[C@@H](O[C@H]3[C@H](O)[C@@H](O)C(O)O[C@@H]3CO)O[C@@H]2CO)[C@H](O)[C@@H](O)[C@@H]1N[C@H]1C=C(CO)[C@@H](O)[C@H](O)[C@H]1O (stereo partly shown) [Acarbose]
8.6 ± 1.4,44.1 ± 2.9,84.9 ± 1.1,98.5 ± 2.2,^b (Inhibition > 99%),"O=c1c(O)c(-c2ccc(O)cc2)oc2cc(O)cc(O)c12 [Compound 8, kaempferol]"
